In patent US5554752A, “Spirovesamicols” (Regents of the University of Minnesota, priority 1995, dated 1996):
Structures can show the parent of a compound that is named as a salt.

Columns and labels:
[1] = molecular target: vesamicol receptor; assay: Vesamicol receptor binding ([3H]vesamicol); conditions: for Ki: [3H]vesamicol approx. 5 nM, 24 h equilibration, racemates, read-out: Ki (Inhibitory potency of Spirovesamicols)
[2] = system: vesamicol receptor; conditions: literature, cited from earlier work
[3] = system: cholinergic neurotransmission; assay: Pharmacological Activity of Spirovesamicols in Male Wistar Rats (anticholinergic signs and lethality, intraperitoneal); format: in vivo, rat; conditions: i.p.
Procedure: Rats and mice were injected intraperitoneally with solutions of the compounds in aqueous EtOH (or aqueous DMSO). […] LD20 lethal dose for 20% of animals tested; LD40, lethal dose for 40%; LD60, lethal dose for 60%; L100, lethal dose for all animals; NR, no visible pharmacologic reaction; S, sluggishness and reduced locomotor activity; +, mild symptoms of anticholinergic activity; ++, severe signs of anticholinergic activity.

[4] = system: cholinergic neurotransmission; assay: Pharmacological Activity of Spirovesamicols in Male Swiss Webster Mice (anticholinergic signs and lethality, intraperitoneal); format: in vivo, mouse; conditions: i.p.
Procedure: In vivo anticholinergic activity was evaluated in Swiss Webster mice. Blockade of cholinergic neurotransmission (or anticholinergic activity) was manifested in a rapidly developing respiratory distress, spasms and paralysis. At lethal doses these symptoms were followed by death within 10-20 min. As evident in Tables 1 and 2, the representative compounds tested were lethal at doses as low as 10 umol/Kg.
Rats and mice were injected intraperitoneally with solutions of the compounds in aqueous EtOH (or aqueous DMSO). […] At lethal doses, death generally occurred within 20 minutes following the injection. LD20 lethal dose for 20% of animals tested; LD40, lethal dose for 40%; LD60, lethal dose for 60%; L100, lethal dose for all animals; NR, no visible pharmacologic reaction; S, sluggishness and reduced locomotor activity; +, mild symptoms of anticholinergic activity; ++, severe signs of anticholinergic activity.

[5] = system: cholinergic neurotransmission; conditions: Brittain et al, 1969; cited from earlier work
[6] = system: α-adrenoceptor; conditions: at higher doses; cited from earlier work
[7] = system: storage and release of neurotransmitter; conditions: literature; cited from earlier work

**Q.** For `OC1Cc2ccccc2CC1N1CCC2(CCCc3ccccc32)CC1` (centres unmarked) [Compound 13b, 3,4-Dihydro-1'-(2-hydroxy-1,2,3,4-tetrahydronaphth-3-yl)-spiro[naphthalene-1(2H), 4'-piperidine]hydrochloride], which Ki [1] is on record?
**A.** 18.4 ± 14 nM

**Q.** Which “potency/activity relative to vesamicol, in words” value [2] does the source give for `O[C@@H]1CCCC[C@H]1N1CCC(c2ccc(Cl)cc2)CC1` (relative stereo) [Compound 1b] here?
**A.** between two and eight times less potent than vesamicol

**Q.** With `OC(Cc1ccc(Br)cc1)CN1CCC(c2ccccc2)CC1` (centres unmarked) [Compound 2a] as the compound, how does the “potency/activity relative to vesamicol, in words” value [2] read?
**A.** equipotent with vesamicol

**Q.** For “1'(4-Hydroxy-1-(2-fluorobenzyl)piperidin-3-yl)-spiro[1H-indene-1,4'-piperidine]dihydrochloride [Compound 11f]”, which Ki [1] is on record?
**A.** 0.248 ± 0.025 nM

**Q.** Which Ki [1] does the source give for `OC1Cc2ccccc2CC1N1CCC2(C=Cc3cc(Br)ccc32)CC1` (centres unmarked) [Compound 16, 1'-(2-Hydroxy-1,2,3,4-tetrahydronaphth-3-yl)-spiro[5-bromo-1H-indene-1,4'-piperidine]Hydrochloride] here?
**A.** 1.4 ± 0.3 nM

**Q.** What does the source list for `OC1Cc2ccccc2CC1N1CCC2(C=Cc3c(Br)cccc32)CC1` (centres unmarked) [Compound 15, 1'-(2-Hydroxy-1,2,3,4-tetrahydronaphth-3-yl)-spiro[4-bromo-1H-indene-1,4'-piperidine]Hydrochloride]?
**A.** Pharmacological Activity ([3]; 50 umol/Kg): +; Ki [1]: 0.212 ± 0.063 nM

**Q.** For `OC1CCN(Cc2ccccc2I)CC1N1CCC2(CCCc3ccccc32)CC1` (centres unmarked) [Compound 13c, 1'-(1-(2-Iodobenzyl)-4-hydroxypiperidin-3-yl)-3,4-dihydrospiro[naphthalene-1(2H),4'-piperidine]], which Ki [1] is on record?
**A.** 5.8 ± 1.7 nM

**Q.** Which results are given for `OC1Cc2ccccc2CC1N1CCC2(C=Cc3ccccc32)CC1` (centres unmarked) [Compound 11b, 1'-(2-Hydroxy-1,2,3,4-tetrahydronaphth-3-yl)-spiro[1H-indene-1,4'-piperidine]Hydrochloride]?
**A.** Pharmacological Activity ([3]; 1 umol/Kg): ++; Pharmacological Activity ([3]; 5 umol/Kg): LD100; Pharmacological Activity ([3]; 10 umol/Kg): LD100; Pharmacological Activity ([3]; 20 umol/Kg): LD100; Pharmacological Activity ([4]; 1.25 umol/Kg): +; Pharmacological Activity ([4]; 2.5 umol/Kg): LD20 (lethal dose for 20% of animals tested); Pharmacological Activity ([4]; 5.0 umol/Kg): LD20 (lethal dose for 20% of animals tested); Pharmacological Activity ([4]; 10 umol/Kg): LD40 (lethal dose for 40%); Pharmacological Activity ([4]; 20 umol/Kg): LD60 (lethal dose for 60%); Pharmacological Activity ([4]; 40 umol/Kg): LD100; Ki [1]: 0.121 ± 0.032 nM

**Q.** With `COc1ccc2c3c1OC1C(O)C=CC4C(C2)N([C@@H]2CCCC[C@H]2O)CCC341` (some centres unmarked) [Compound 7a] as the compound, how does the “potency/activity relative to vesamicol, in words” value [2] read?
**A.** inactive

**Q.** With `OC1CCN(Cc2cccc(I)c2)CC1N1CCC2(C=Cc3ccccc32)CC1` (centres unmarked) [Compound 11d, 1'-(4-Hydroxy1-(3-iodobenzyl)piperidin-3-yl)-spiro[1H-indene-1,4'-piperidine]dihydrochloride] as the compound, how does the Ki [1] read?
**A.** 0.264 ± 0.078 nM

**Q.** Which “potency/activity relative to vesamicol, in words” value [2] does the source give for `COc1ccc2c3c1OC1C(=O)CCC4C(C2)N([C@@H]2CCCC[C@H]2O)CCC314` (some centres unmarked) [Compound 7b] here?
**A.** inactive

**Q.** Which “loss of activity relative to vesamicol” value ([2]; less active than vesamicol) does the source give for `O[C@@H]1CCCC[C@H]1N1CCc2ccccc2C1` (relative stereo) [Compound 6a] here?
**A.** 125 times

**Q.** With `O[C@@H]1CCCC[C@H]1N1CCC(c2ccccc2)CC1` [(-)-vesamicol, reference compound] as the compound, how does the Kd ([1]; conditions of this assay, read-out: dissociation constant (kd)) read?
**A.** 1 nM

**Q.** With `O=[N+]([O-])c1ccc(C2CCN([C@@H]3CCCC[C@H]3O)CC2)cc1` (relative stereo) [Compound 1c] as the compound, how does the “potency/activity relative to vesamicol, in words” value [2] read?
**A.** between two and eight times less potent than vesamicol

**Q.** Which “Pharmacological Activity” value ([3]; 10 umol/Kg) does the source give for `OC1CCCCC1N1CCC2(C=Cc3ccccc32)CC1` (centres unmarked) [Compound 11a, 1'-(2-Hydroxycylohex-1-yl)spiro[1H-indene-1,4'-piperidine]Hydrochloride] here?
**A.** +

**Q.** What about the “Pharmacological Activity” value ([3]; 22.5 umol/Kg) of the same compound?
**A.** ++

**Q.** And the “Pharmacological Activity” value ([3]; 45 umol/Kg)?
**A.** LD100

**Q.** And the “Pharmacological Activity” value ([4]; 12.5 umol/Kg)?
**A.** +

**Q.** What about the “Pharmacological Activity” value ([4]; 25 umol/Kg) of the same compound?
**A.** LD40 (lethal dose for 40%)

**Q.** What about the “Pharmacological Activity” value ([4]; 50 umol/Kg) of the same compound?
**A.** LD60 (lethal dose for 60%)

**Q.** And the “Pharmacological Activity” value ([4]; 100 umol/Kg)?
**A.** LD100

**Q.** What about the Ki [1] of the same compound?
**A.** 0.622 ± 0.082 nM

**Q.** What does the source list for `OC1Cc2ccccc2CC1N1CCC2(C=Cc3ccc(Br)cc32)CC1` (centres unmarked) [Compound 17, 1'-(2-Hydroxy-1,2,3,4-tetrahydronaphth-3-yl)spiro[6-bromo-1H-indene-1,4'-piperidine]Hydrochloride]?
**A.** Ki [1]: 0.271 ± 0.056 nM; effect of bromine on potency ([1]; in words): slight reduction in potency

**Q.** For `OC1CCN(Cc2ccccc2I)CC1N1CCC2(C=Cc3ccccc32)CC1` (centres unmarked) [Compound 11c, 1'-(4-Hydroxy1-(2-iodobenzyl)piperidin-3-yl)-spiro[1H-indene-1,4'-piperidine]dihydrochloride], which Ki [1] is on record?
**A.** 0.798 ± 0.187 nM

**Q.** Which results are given for `OC1CCN(Cc2cccc(I)c2)CC1N1CCC2(CCCc3ccccc32)CC1` (centres unmarked) [Compound 13d, 1'-(1-(3-Iodobenzyl)-4-hydroxypiperidin-3-yl)-3,4-dihydrospiro[naphthalene-1(2H),4'-piperidine]]?
**A.** Pharmacological Activity ([3]; 50 umol/Kg): S; Pharmacological Activity ([3]; 125 umol/Kg): LD100; Ki [1]: 0.082 ± 0.02 nM; potency relative to vesamicol, in words ([1]; compared with vesamicol / (-)-vesamicol): at least ten times more potent than (-)-vesamicol

**Q.** With `OC1CCCCC1N1CCC2(CCCc3ccccc32)CC1` (centres unmarked) [Compound 13a, 3,4-Dihydro-1'-(2-Hydroxycyclohex-1-yl)-spiro[naphthalene-1,4'-piperidine]hydrochloride] as the compound, how does the Ki [1] read?
**A.** 24.2 ± 5.71 nM

**Q.** With `OC1CCN(Cc2cccc(I)c2)CC1N1CCC(c2ccccc2)CC1` (centres unmarked) [MIBT] as the compound, how does the “potency/activity relative to vesamicol, in words” value [2] read?
**A.** potent ligands

**Q.** Which “potency/activity relative to vesamicol, in words” value [2] does the source give for `OC1CCNCC1N1CCC(c2ccccc2)CC1` (centres unmarked) [trozamicol] here?
**A.** poor ligand for vesamicol receptor

**Q.** Which results are given for `OC1CCCCC1N1CCC(c2ccccc2)CC1` (centres unmarked) [Compound 1, 2-(4-phenylpiperidino)cyclohexanol]?
**A.** Ki [1]: 1 nM; effects in laboratory animals [5]: induces respiratory paralysis, spasms and death; α-adrenoceptor activity [6]: exhibits α-adrenoceptor activity at higher doses; effect on storage and release of neurotransmitter [7]: selectively inhibits the storage and release of neurotransmitter; effect on synthesis of neurotransmitter [7]: without directly affecting the synthesis of this neurotransmitter

**Q.** With `O=C1NCN(c2ccccc2)C12CCN([C@@H]1CCCC[C@H]1O)CC2` (relative stereo) [Compound 6b] as the compound, how does the “potency/activity relative to vesamicol, in words” value [2] read?
**A.** inactive

**Q.** With `Nc1cccc2c1C[C@@H](N1CCC(c3ccccc3)CC1)[C@H](O)C2` (relative stereo) [Compound 2b] as the compound, how does the “potency/activity relative to vesamicol, in words” value [2] read?
**A.** a potent VR ligand

**Q.** For `OC1CCN(Cc2ccc(F)cc2)CC1N1CCC2(CCCc3ccccc32)CC1` (centres unmarked) [Compound 13f, 1'-(1-(4-fluorobenzyl)-4-hydroxypiperidin-3-yl)-3,4-dihydrospiro[naphthalene-1(2H),4'-piperidine]], which Ki [1] is on record?
**A.** 2.6 ± 0.9 nM

**Q.** For `OC1Cc2ccccc2CC1N1CCC2(CC1)C(Br)=Cc1ccccc12` (centres unmarked) [Compound 14, 1'-(2-Hydroxy-1,2,3,4-tetrahydronaphth-3-yl)-spiro[2-bromo-1H-indene-1,4'-piperidine]Hydrochloride], which “Pharmacological Activity” value ([3]; 12.5 umol/Kg) is on record?
**A.** +

**Q.** What about the “Pharmacological Activity” value ([3]; 25 umol/Kg) of the same compound?
**A.** LD100

**Q.** What about the “Pharmacological Activity” value ([3]; 50 umol/Kg) of the same compound?
**A.** LD100

**Q.** What about the “increase in potency on bromine substitution at C2” value ([1]; 11a vs 14) of the same compound?
**A.** 20 fold

**Q.** And the Ki [1]?
**A.** 0.038 ± 0.006 nM
